In the NIST ThermoML archive (doi:10.1021/je9008014):
Numbers after ± are expanded uncertainties.

Test: xn = mol fraction of the nth substance listed
Conditions: 101 kPa, Liquid; for mass density: Pycnometric method

CCOCCOCCOCCO [2-(2-(2-ethoxyethoxy)ethoxy)ethanol] + O
Conditions | mass density [kg/m3] | viscosity [mPa·s]
293.15 K, x1 = 0.01119 | 1006.9 ± 2 | 1.484 ± 0.036
293.15 K, x1 = 0.02492 | 1016.6 ± 2 | 2.221 ± 0.052
293.15 K, x1 = 0.04128 | 1026.2 ± 2.1 | 3.256 ± 0.074
293.15 K, x1 = 0.06284 | 1035.1 ± 2.1 | 4.832 ± 0.11
293.15 K, x1 = 0.09179 | 1040.8 ± 2.1 | 6.993 ± 0.14
293.15 K, x1 = 0.1317 | 1042.7 ± 2.1 | 9.102 ± 0.17
293.15 K, x1 = 0.1905 | 1042.2 ± 2.1 | 10.54 ± 0.19
293.15 K, x1 = 0.2885 | 1038.7 ± 2.1 | 11.29 ± 0.21
293.15 K, x1 = 0.4019 | 1033.6 ± 2.1 | 11.34 ± 0.21
293.15 K, x1 = 0.4747 | 1031.1 ± 2.1 | 10.93 ± 0.2
293.15 K, x1 = 0.6076 | 1027.3 ± 2.1 | 10.06 ± 0.19
293.15 K, x1 = 0.7399 | 1024.4 ± 2.1 | 9.168 ± 0.18
293.15 K, x1 = 0.8176 | 1022.9 ± 2.1 | 8.738 ± 0.17
293.15 K, x1 = 0.8956 | 1021.8 ± 2.1 | 8.353 ± 0.17
293.15 K, x1 = 1 | 1020.6 ± 2.1 | 7.796 ± 0.16
298.15 K, x1 = 1 | 1016.3 ± 2.1 | 6.739 ± 0.14
303.15 K, x1 = 0.01119 | 1003.7 ± 2 | 1.129 ± 0.028
303.15 K, x1 = 0.02492 | 1012.6 ± 2 | 1.595 ± 0.038
303.15 K, x1 = 0.04128 | 1020.7 ± 2.1 | 2.344 ± 0.054
303.15 K, x1 = 0.06284 | 1028.7 ± 2.1 | 3.349 ± 0.075
303.15 K, x1 = 0.09179 | 1032.8 ± 2.1 | 4.589 ± 0.1
303.15 K, x1 = 0.1317 | 1034.9 ± 2.1 | 5.955 ± 0.12
303.15 K, x1 = 0.1905 | 1033.9 ± 2.1 | 7.032 ± 0.14
303.15 K, x1 = 0.2885 | 1029.8 ± 2.1 | 7.522 ± 0.15
303.15 K, x1 = 0.4019 | 1024.9 ± 2.1 | 7.547 ± 0.15
303.15 K, x1 = 0.4747 | 1022.3 ± 2.1 | 7.378 ± 0.15
303.15 K, x1 = 0.6076 | 1018.5 ± 2.1 | 6.868 ± 0.14
303.15 K, x1 = 0.7399 | 1015.5 ± 2.1 | 6.386 ± 0.13
303.15 K, x1 = 0.8176 | 1014.1 ± 2.1 | 6.178 ± 0.13
303.15 K, x1 = 0.8956 | 1013.1 ± 2.1 | 5.884 ± 0.12
303.15 K, x1 = 1 | 1011.9 ± 2.1 | 5.657 ± 0.12
308.15 K, x1 = 1 | 1008.1 ± 2.1 | –
313.15 K, x1 = 0.01119 | 999.7 ± 2 | 0.9341 ± 0.024
313.15 K, x1 = 0.02492 | 1007.5 ± 2 | 1.261 ± 0.031
313.15 K, x1 = 0.04128 | 1014.8 ± 2 | 1.747 ± 0.041
313.15 K, x1 = 0.06284 | 1021.8 ± 2.1 | 2.429 ± 0.055
313.15 K, x1 = 0.09179 | 1025.3 ± 2.1 | 3.265 ± 0.073
313.15 K, x1 = 0.1317 | 1026.5 ± 2.1 | 4.072 ± 0.09
313.15 K, x1 = 0.1905 | 1025.5 ± 2.1 | 4.899 ± 0.11
313.15 K, x1 = 0.2885 | 1021.4 ± 2.1 | 5.382 ± 0.12
313.15 K, x1 = 0.4019 | 1016.5 ± 2.1 | 5.391 ± 0.12
313.15 K, x1 = 0.4747 | 1013.9 ± 2.1 | 5.226 ± 0.11
313.15 K, x1 = 0.6076 | 1010.2 ± 2 | 4.953 ± 0.11
313.15 K, x1 = 0.7399 | 1007.4 ± 2 | 4.586 ± 0.1
313.15 K, x1 = 0.8176 | 1006.1 ± 2 | 4.457 ± 0.099
313.15 K, x1 = 0.8956 | 1005.1 ± 2.1 | 4.315 ± 0.096
313.15 K, x1 = 1 | 1003.9 ± 2.1 | 4.185 ± 0.094
323.15 K, x1 = 0.01119 | 995.1 ± 2 | 0.7411 ± 0.019
323.15 K, x1 = 0.02492 | 1002.1 ± 2 | 1.013 ± 0.025
323.15 K, x1 = 0.04128 | 1008.7 ± 2 | 1.369 ± 0.033
323.15 K, x1 = 0.06284 | 1014.4 ± 2 | 1.859 ± 0.043
323.15 K, x1 = 0.09179 | 1017.4 ± 2.1 | 2.436 ± 0.055
323.15 K, x1 = 0.1317 | 1018.1 ± 2.1 | 3.015 ± 0.068
323.15 K, x1 = 0.1905 | 1016.8 ± 2.1 | 3.558 ± 0.079
323.15 K, x1 = 0.2885 | 1012.7 ± 2 | 3.942 ± 0.087
323.15 K, x1 = 0.4019 | 1007.7 ± 2 | 3.965 ± 0.088
323.15 K, x1 = 0.4747 | 1005.2 ± 2 | 3.885 ± 0.086
323.15 K, x1 = 0.6076 | 1001.6 ± 2 | 3.735 ± 0.083
323.15 K, x1 = 0.7399 | 998.8 ± 2 | 3.552 ± 0.08
323.15 K, x1 = 0.8176 | 997.6 ± 2 | 3.509 ± 0.079
323.15 K, x1 = 0.8956 | 996.6 ± 2 | 3.437 ± 0.078
323.15 K, x1 = 1 | 995.5 ± 2 | 3.326 ± 0.076
333.15 K, x1 = 0.01119 | 989.6 ± 2 | 0.6117 ± 0.017
333.15 K, x1 = 0.02492 | 995.7 ± 2 | 0.8193 ± 0.021
333.15 K, x1 = 0.04128 | 1001.9 ± 2 | 1.092 ± 0.027
333.15 K, x1 = 0.06284 | 1006.2 ± 2 | 1.433 ± 0.034
333.15 K, x1 = 0.09179 | 1008.5 ± 2 | 1.853 ± 0.043
333.15 K, x1 = 0.1317 | 1008.7 ± 2 | 2.252 ± 0.051
333.15 K, x1 = 0.1905 | 1007.3 ± 2 | 2.652 ± 0.06
333.15 K, x1 = 0.2885 | 1003.1 ± 2 | 2.923 ± 0.066
333.15 K, x1 = 0.4019 | 998.5 ± 2 | 3.006 ± 0.068
333.15 K, x1 = 0.4747 | 996.1 ± 2 | 2.953 ± 0.067
333.15 K, x1 = 0.6076 | 992.5 ± 2 | 2.879 ± 0.065
333.15 K, x1 = 0.7399 | 989.8 ± 2 | 2.774 ± 0.063
333.15 K, x1 = 0.8176 | 988.6 ± 2 | 2.728 ± 0.062
333.15 K, x1 = 0.8956 | 987.7 ± 2 | 2.697 ± 0.062
333.15 K, x1 = 1 | 986.7 ± 2 | 2.627 ± 0.061
